What all share (assay type): cell-based, human
Experiment [1] concerns Peripheral Blood Mononuclear Cells (PBMCs). Briefly: Osteoclast resorption of a hydroxyapatite layer (Von Kossa, ImageJ) by PBMC-derived osteoclasts. The following applies: 14 days; for osteoclast activity (resorption): healthy PBMCs stimulated with RANKL and M-CSF, dose response, 10^-6, 10^-7 and 10^-8 M. As for the experimental part: PBMCs were isolated from the whole blood of patients or healthy volunteers by means of Ficoll-Paque Plus (GE Healthcare, Brussels, Belgium) density gradient centrifugation according to the manufacturer's instructions. Heparinized whole blood (20 ml) was drawn from each individual and diluted 1:1 with alpha minimal essential medium (α-MEM; Lonza, Braine-l'Alleud, Belgium), before being layered over Ficoll-Paque and centrifuged at 450 g for 40 min. The mononuclear cell interface was then removed and washed 3 times with α-MEM. Cells were stored in liquid nitrogen until use and seeded at a density of 5×10^5 cells per well. All cultures were performed in quadruplicate in 16-well culture slides (VWR, Leuven, Belgium) or 16-well BD Biocoat Osteologic Slides (BD Biosciences), and cells were cultured in α-MEM supplemented with 10% FBS, 100 IU/ml penicillin and 100 μg/ml streptomycin (“complete medium”), or complete medium plus M-CSF (25 ng/ml) and RANKL (30 ng/ml). […]
(§1) After 14 days, PBMCs were fixed and stained for the osteoclast-specific marker tartrate-resistant acid phosphate (TRAP), and the nuclear marker DAPI, as previously described. The formation of TRAP positive multi-nucleated (more than three nuclei) cells was quantified by counting the multi-nuclear stained cells in each well (D'Amelio P, Grimaldi A, Pescarmona G P, Tamone C, Roato I, Isaia G. Spontaneous osteoclast formation from peripheral blood mononuclear cells in postmenopausal osteoporosis. FASEB J. 2005; 19(3):410-2.). Filamentous (F)-actin rings representing active osteoclasts were visualized after staining of the actin cytoskeleton with the toxin phalloidin conjugated to FITC, and quantified by counting, as described above. […] Lacunar resorption was determined by measuring the total area unstained by Von-Kossa (total area resorbed) using ImageJ software (National Institute of Health, MD, USA), and was expressed as the total percentage of the surface reabsorbed. […]

The test system is the same in experiment [2]. Briefly: Osteoclast formation: TRAP positive multinuclear cells in PBMC cultures. The following applies: for TRAP positive multinuclear cells (osteoclast formation): spermidine 10^-8 M; for spontaneous osteoclast formation: 14 days. As for the experimental part:
PBMCs were isolated from the whole blood of patients or healthy volunteers by means of Ficoll-Paque Plus (GE Healthcare, Brussels, Belgium) density gradient centrifugation according to the manufacturer's instructions. Heparinized whole blood (20 ml) was drawn from each individual and diluted 1:1 with alpha minimal essential medium (α-MEM; Lonza, Braine-l'Alleud, Belgium), before being layered over Ficoll-Paque and centrifuged at 450 g for 40 min. The mononuclear cell interface was then removed and washed 3 times with α-MEM. Cells were stored in liquid nitrogen until use and seeded at a density of 5×10^5 cells per well. All cultures were performed in quadruplicate in 16-well culture slides (VWR, Leuven, Belgium) or 16-well BD Biocoat Osteologic Slides (BD Biosciences), and cells were cultured in α-MEM supplemented with 10% FBS, 100 IU/ml penicillin and 100 μg/ml streptomycin (“complete medium”), or complete medium plus M-CSF (25 ng/ml) and RANKL (30 ng/ml). In order to study the effect of circulating factors on osteoclast formation, PBMCs were also grown in α-MEM containing 10% human healthy volunteer serum (HS) or 10% patient serum (PS), in the presence or absence of M-CSF (25 ng/ml) and RANKL (30 ng/ml). For cytokine neutralization experiments, PBMCs were grown in α-MEM/10% PS for 14 days, in the presence of varying concentrations of anti-TNF-α and/or anti-IL-6 (R&D Systems, Abingdon, UK). All cultures were maintained at 37° C. in a humidified atmosphere with 5% CO2.
as §1

Experiment [3] deals with p62 protein. Briefly: Autophagy marker p62 protein expression (western blot) in PBMCs/osteoclasts. The following applies: healthy PBMCs, RANKL/MCSF stimulated, spermidine 2×10^-8 M, 14 days. An excerpt: We also measured markers of autophagy in the cell lysates from these experiments. The concentration of proteins we obtained were quite low, and there was insufficient protein to measure anything by western blotting in the “sick spermidine” group. […] There was no effect of spermidine on the healthy PBMCs (FIG. 6).
FIG. 6 concerns autophagy marker p62 protein expression in healthy and sick PBMCs/osteoclasts (RANKL/MCSF stimulated) and the effect of spermidine on healthy PBMCs/osteoclasts. Healthy and sick PBMCs were cultured for 14 days with or without spermidine (2×10^−8 M) in 6 well plates (5×10^6 cells/well). After 14 days, protein was extracted using the Ambion PARIS extraction kit (Applied Biosystems), and proteins quantified using the BC Protein Assay (Thermo Fischer Scientific). (A) 5 ug of protein was subjected to 15% Bis-tris gelelectrophoresis, transferred to nitrocellulose membrane and incubated at 4° C. overnight in Anti-p62 (Novus Biologicals; 1:1000). p62 protein was detected by ECL following incubation with AntiMouseIgG (DAKO; 1:1000). GAPDH was used as a loading control. (B) p62 relative expression was quantified with Image QuantTL (Amersham Biosciences) and normalized to GAPDH (n=3; ***p≦0.05 vs. Healthy).
Background: Immunoblotting shows a protein as a band on a membrane.

Experiment [4] deals with PBMCs from critically ill patients. Briefly: Osteoclast formation (TRAP staining, day 14) in PBMCs from critically ill patients cultured in critically ill patient serum. To be noted: low doses, compounds added d1-d14, TRAP staining at day 14. The text has this:
We have determined that the treatment of patient's peripheral blood mononuclear cell (PBMCs), in particular, PBMCs of critically ill patients with autophagy inducers can be used to suppress enhanced osteoclastogenesis. It turned out that a particular advantage is that such autophagy inducers can be targeted to particularly treat the PBMCs.

Four compounds from US20140066439A1, “OSTEOCLAST ACTIVITY” (Katholieke Universiteit Leuen, K.U.Leuven R&D, priority 2010, published 2014) can be followed below.

Entries after “also recorded” stand apart in the source; their conditions may differ.

With `NCCCCNCCCN` [Spermidine], the figures for the “osteoclast activity (resorption)” value in experiment [1] and in experiment [1] (listed as spermidine) were “reduced” and “inhibits”, respectively. Besides, the “osteoclast resorption of hydroxyapatite layer” value in experiment [1] (sick stimulated (RANKL/MCSF) PBMCs, increase vs healthy, spermidine 2×10^-8 M) is given as “reduced; also recorded: completely blocked”. Also, the “TRAP positive multinuclear cells (osteoclast formation)” value in experiment [2] (healthy PBMCs stimulated with RANKL and MCSF, day 14) is “did not, however, have a significant effect”; in experiment [2] (sick (critically ill) PBMCs stimulated with RANKL and MCSF, day 14, vs control sick PBMCs) it was “significant reduction; also recorded: completely blocked”. In addition, the spontaneous osteoclast formation entry in experiment [2] (healthy unstimulated (no RANKL or MCSF) PBMCs) is reported as “no effect”; in experiment [2] (sick unstimulated (no RANKL or MCSF) PBMCs, increase vs healthy), “completely knocked down”. In experiment [3], the p62 protein expression entry is reported as “no effect”. Moreover, the “critical illness enhanced osteoclast formation” value in experiment [4] was “inhibiting effect”.

As to `CO[C@H]1C[C@@H]2CC[C@@H](C)[C@@](O)(O2)C(=O)C(=O)N2CCCC[C@H]2C(=O)O[C@H]([C@H](C)C[C@@H]2CC[C@@H](OCCO)[C@H](OC)C2)CC(=O)[C@H](C)/C=C(\C)[C@@H](O)[C@@H](OC)C(=O)[C@H](C)C[C@H](C)/C=C/C=C/C=C/1C` [Everolimus, 40-O-(2-hydroxyethyl)-rapamycin], the “critical illness enhanced osteoclast formation” value in experiment [4] is “inhibiting effect”.

`CC(CN1c2ccccc2Sc2ccccc21)N(C)C` (stereo not drawn) [Promethazine, 10-(2-dimethylaminopropyl)phenothiazine]: the “critical illness enhanced osteoclast formation” value in experiment [4] is on record as “inhibiting effect”.

As for `Nc1ncn([C@@H]2O[C@H](CO)[C@@H](O)[C@H]2O)c(=O)n1` [5-azacytidine], the “critical illness enhanced osteoclast formation” value in experiment [4] is given as “inhibiting effect”.
